This passage reports EC50 and Emax results from patent US8846951B2 (AbbVie Inc., priority 2009, dated 2014).

pEC50: −log10 of the molar value. Read-outs that look alike come from different tables or passages of the source.

Common to all, as to type: cell-based
Test [1] deals with T1, 5HT2C receptors (Homo sapiens, UniProt P28335).
T1 sequence (P28335 33-458): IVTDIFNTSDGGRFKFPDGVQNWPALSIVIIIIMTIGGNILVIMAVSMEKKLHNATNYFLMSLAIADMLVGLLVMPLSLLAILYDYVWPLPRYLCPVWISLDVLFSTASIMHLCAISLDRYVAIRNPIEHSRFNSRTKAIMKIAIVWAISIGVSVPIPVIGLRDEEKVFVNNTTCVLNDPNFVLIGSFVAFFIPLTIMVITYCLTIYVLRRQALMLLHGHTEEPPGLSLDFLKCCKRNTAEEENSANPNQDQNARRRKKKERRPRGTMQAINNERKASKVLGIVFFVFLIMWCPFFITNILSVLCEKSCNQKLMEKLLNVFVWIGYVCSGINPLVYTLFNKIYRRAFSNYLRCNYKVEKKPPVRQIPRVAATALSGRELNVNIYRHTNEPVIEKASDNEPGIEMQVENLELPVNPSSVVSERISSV
The test can be described thus: Human 5-HT2C functional assay in 1321N1 cells (intracellular calcium, FLIPR). Further details: expressed in transfected cells; host or cells: 1321N1 cells; call rule not given here. To be noted: 5-HT2c agonist activity, maximum calcium response. How it is done:
(ii) Human 5-HT2C Functional Assay in 1321N1 Cells
Functional activity was determined by testing the effect of the compounds on intracellular calcium levels in 1321N1 cells stably transfected with the human 5-HT2C receptor. Cells were seeded into 96-well plates at 50,000 cells/well and grown overnight in tissue culture medium (DMEM with Glutamax I (Invitrogen), containing 10% dFCS, 50 μg/mL Gentamicin, 400 μg/mL Geneticin) at 37° C. and 7% CO2. Growth medium was replaced by medium without dFCS for overnight incubation. Cells were loaded with a fluorescent calcium-sensitive dye in the presence of 1% probenicid according to the manufacturer's protocol (Fluo4 AM, Molecular Devices). Serial compound dilutions (final concentrations 10^−10 to 10^−5 M) were added to the cells either alone or in the presence of serotonin (10^−9 M) and the maximum calcium response was determined using a FLIPR instrument (Molecular Devices). Concentration-response curves were fitted using a four-parameter logistic equation (GraphPad Prism). The concentration at which the compound exerts half its maximal effect is named the ‘effective concentration 50’ or ‘EC50’ and is listed in Table 2.

Test [2] deals with T1, 5HT2C receptors. Put plainly: Human 5-HT2C functional high throughput screening assay in CHO-K1 cells (calcium flux). Further details: expressed in transfected cells; host or cells: CHO-K1 cells. The settings on record: for pEC50: CHO-K1 cells, calcium flux; for Emax: 5-HT2C, maximum functional response as percentage relative to the effect of serotonin. The method in brief: (§1)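 Frozen CHO-K1 cells overexpressing the receptor were plated, serum-starved overnight, then loaded with Ca4 dye plus 2.5 mM probenecid for 60 min at room temperature. FLIPR fluorescence (ex 480/em 530 nm, 25 °C) after compound addition was normalized to serotonin; EC50 and Emax came from 4-parameter logistic fits.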

The target in test [3] is T2, 5HT2B receptors (Homo sapiens, UniProt P41595).
T2 construct: expressed in transfected cells; host or cells: CHO-K1 cells
T2 sequence (P41595 whole entry): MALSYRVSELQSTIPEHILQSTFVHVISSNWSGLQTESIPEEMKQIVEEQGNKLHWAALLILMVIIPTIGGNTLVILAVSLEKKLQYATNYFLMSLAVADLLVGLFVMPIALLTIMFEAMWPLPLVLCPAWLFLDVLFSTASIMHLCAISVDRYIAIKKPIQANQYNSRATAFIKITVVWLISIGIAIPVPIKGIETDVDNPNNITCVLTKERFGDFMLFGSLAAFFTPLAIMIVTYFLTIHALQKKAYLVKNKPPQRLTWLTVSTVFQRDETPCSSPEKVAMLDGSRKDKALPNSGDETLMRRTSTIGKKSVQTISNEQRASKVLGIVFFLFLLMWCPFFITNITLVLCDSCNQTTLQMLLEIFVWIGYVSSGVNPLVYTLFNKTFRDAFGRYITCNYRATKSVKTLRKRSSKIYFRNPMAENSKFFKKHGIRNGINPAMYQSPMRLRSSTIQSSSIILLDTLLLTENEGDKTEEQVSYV
The test can be described thus: Human 5-HT2B functional high throughput screening assay in CHO-K1 cells (calcium flux). The settings on record: for pEC50: CHO-K1 cells, calcium flux; for Emax: 5-HT2B, maximum functional response as percentage relative to the effect of serotonin. In short, it runs like this: as §1
(In general: A change in cytosolic calcium serves as a functional read-out for many receptors and channels.)

Where [4] appears, read: 5-HT2C agonist activity, read-out: EC50.
Where [5] appears, read: 5-HT2B agonist activity, read-out: EC50.

Take `O=C1NC[C@@H]2CN(Cc3ccccc3)C[C@@H]2c2ccccc21` (relative stereo) [Example 3, Cis-2-benzyl-1,2,3,3a,4,5-hexahydrobenzo[c]pyrrolo[3,4-e]azepin-6(10bH)-one]: the pEC50 (commonly the negative decadic logarithm of the EC50, by convention in mol/L) in test [1] is 7.00.

With `CC(=O)c1cccc(-c2ccc3c(c2)C(=O)NC[C@H]2CN(C)C[C@H]32)c1` [Example 278, (3aS,10bS)-8-(3-Acetylphenyl)-2-methyl-1,2,3,3a,4,5-hexahydrobenzo[e]pyrrolo[3,4-c]azepin-6(10bH)-one], the pEC50 in test [2] (setting [4]) was 8.70; in test [3] (setting [5]), under 5.00. The Emax – broadly, the size of the effect at its maximum, as opposed to the concentration needed – was 120% in test [2] (CHO-K1, read-out: Emax) and “inactive” in test [3].

Take `C[C@H](O)c1cccc(-c2ccc3c(c2)C(=O)NC[C@H]2CN(C)C[C@H]32)c1` [Example 293, (3aS,10bS)-8-{3-[(1S)-1-Hydroxyethyl]phenyl}-2-methyl-2,3,3a,4,5,10b-hexahydropyrrolo[3,4-d][2]benzazepin-6(1H)-one]: in test [2] (setting [4]), the pEC50 was 8.70. Also, the Emax entry in test [3] is “inactive”.

For the compound `C[C@@H](O)c1cccc(-c2ccc3c(c2)C(=O)NC[C@H]2CN(C)C[C@H]32)c1` [Example 294, (3aS,10bS)-8-{3-[(1R)-1-hydroxyethyl]phenyl}-2-methyl-2,3,3a,4,5,10b-hexahydropyrrolo[3,4-d][2]benzazepin-6(1H)-one], the figures for the Emax in test [2] and in test [3] were 100% and “inactive”, respectively. For the same compound, the pEC50 in test [3] (setting [5]) was under 5.00.

For the compound `CC(C)C(O)c1cccc(-c2ccc3c(c2)C(=O)NC[C@H]2CN(C)C[C@H]32)c1` (stereo partly drawn) [Example 304, (3aS,10bS)-8-[3-(1-Hydroxy-2-methylpropyl)phenyl]-2-methyl-2,3,3a,4,5,10b-hexahydropyrrolo[3,4-d][2]benzazepin-6(1H)-one], the pEC50 is 9.15 in test [2] (setting [4]) and under 5.00 in test [3] (setting [5]). Moreover, the Emax is 100% in test [2] (CHO-K1, read-out: Emax) and “inactive” in test [3].

For `CN1C[C@@H]2CNC(=O)c3cc(-c4ccc5c(c4)C(=O)CC5)ccc3[C@H]2C1` [Example 306, (3aS,10bS)-2-Methyl-8-(3-oxo-2,3-dihydro-1H-inden-5-yl)-2,3,3a,4,5,10b-hexahydropyrrolo[3,4-d][2]benzazepin-6(1H)-one], the pEC50 in test [2] (setting [4]) was 8.00; in test [3] (setting [5]) it was under 5.00. Besides, the Emax is 90% in test [2] (CHO-K1, read-out: Emax) and “inactive” in test [3].

Regarding `CC(C)COc1ccc2c(c1)C(=O)NC[C@H]1CNC[C@H]21` [Example 308, (3aR-10bS)-8-Isobutoxy-2,3,3a,4,5,10b-hexahydropyrrolo[3,4-d][2]benzazepin-6(1H)-one], the Emax was 95% in test [2] (CHO-K1) and “inactive” in test [3]. Further, the pEC50 in test [2] (EC50, 5-HT2C agonist activity) was 8.52; in test [3] (EC50, 5-HT2B agonist activity), under 5.00.

Turning to `CC(C)COc1ccc2c(c1)C(=O)NC[C@@H]1CNC[C@@H]21` [Example 309, (3aS,10bR)-8-Isobutoxy-2,3,3a,4,5,10b-hexahydropyrrolo[3,4-d][2]benzazepin-6(1H)-one], the Emax was 70% in test [2] (CHO-K1) and “inactive” in test [3]. Also, the negative-log EC50 (pEC50) in test [3] (EC50, 5-HT2B agonist activity) is under 5.00.

Turning to `CN1C[C@@H]2CNC(=O)c3cc(-c4ccc5c(c4)C(O)CC5)ccc3[C@H]2C1` (stereo partly drawn) [Example 310, (3aS,10bS)-8-(3-Hydroxy-2,3-dihydro-1H-inden-5-yl)-2-methyl-2,3,3a,4,5,10b-hexahydropyrrolo[3,4-d][2]benzazepin-6(1H)-one], the values for the pEC50 in test [2] (setting [4]) and in test [3] (setting [5]) were 9.15 and under 5.00, respectively. Moreover, the Emax is 100% in test [2] (CHO-K1, read-out: Emax) and “inactive” in test [3].

As to `CCC(O)c1cccc(-c2ccc3c(c2)C(=O)NC[C@H]2CN(C)C[C@H]32)c1` (stereo partly drawn) [Example 311, (3aS,10bS)-8-[3-(1-Hydroxypropyl)phenyl]-2-methyl-2,3,3a,4,5,10b-hexahydropyrrolo[3,4-d][2]benzazepin-6(1H)-one], the pEC50 is 9.10 in test [2] (setting [4]) and under 5.00 in test [3] (setting [5]). Besides, the Emax is 95% in test [2] (CHO-K1, read-out: Emax) and “inactive” in test [3].

For the compound `CC(C)CC(O)c1cccc(-c2ccc3c(c2)C(=O)NC[C@H]2CN(C)C[C@H]32)c1` (stereo partly drawn) [Example 312, (3aS,10bS)-8-[3-(1-Hydroxy-3-methylbutyl)phenyl]-2-methyl-2,3,3a,4,5,10b-hexahydropyrrolo[3,4-d][2]benzazepin-6(1H)-one], the pEC50 in test [2] (setting [4]) was 8.70; in test [3] (setting [5]), under 5.00. Also, the Emax is 90% in test [2] (CHO-K1, read-out: Emax) and “inactive” in test [3].

`CCCC(O)c1cccc(-c2ccc3c(c2)C(=O)NC[C@H]2CN(C)C[C@H]32)c1` (stereo partly drawn) [Example 313, (3aS,10bS)-8-[3-(1-Hydroxybutyl)phenyl]-2-methyl-2,3,3a,4,5,10b-hexahydropyrrolo[3,4-d][2]benzazepin-6(1H)-one]: the pEC50 was 9.10 in test [2] (setting [4]) and under 5.00 in test [3] (setting [5]). For the same compound, the maximal response (Emax) is 95% in test [2] (CHO-K1, read-out: Emax) and “inactive” in test [3].

As for `COc1ccc(-c2ccc3c(c2)C(=O)NC[C@H]2CN(C)C[C@H]32)cn1` [Example 318, (3aS,10bS)-8-(6-Methoxypyridin-3-yl)-2-methyl-2,3,3a,4,5,10b-hexahydropyrrolo[3,4-d][2]benzazepin-6(1H)-one], the Emax in test [2] (CHO-K1) is 90%; in test [3] it was “inactive”. Also, the pEC50 in test [2] (EC50, 5-HT2C agonist activity) was 8.00; in test [3] (EC50, 5-HT2B agonist activity), under 5.00.

As for `COc1ccc(-c2ccc3c(c2)C(=O)NC[C@H]2CN(C)C[C@H]32)cc1Cl` [Example 319, (3aS,10bS)-8-(3-Chloro-4-methoxyphenyl)-2-methyl-2,3,3a,4,5,10b-hexahydropyrrolo[3,4-d][2]benzazepin-6(1H)-one], the pEC50 was 8.22 in test [2] (setting [4]) and under 5.00 in test [3] (setting [5]). Also, the maximal effect (Emax) in test [2] (CHO-K1, read-out: Emax) is 90%; in test [3] it was “inactive”.

`COc1ccc(-c2ccc3c(c2)C(=O)NC[C@H]2CN(C)C[C@H]32)c(F)c1` [Example 325, (3aS,10bS)-8-(2-Fluoro-4-methoxyphenyl)-2-methyl-2,3,3a,4,5,10b-hexahydropyrrolo[3,4-d][2]benzazepin-6(1H)-one]: the pEC50 in test [2] (setting [4]) is 8.70; in test [3] (setting [5]), under 5.00. In addition, the maximal response (Emax) in test [2] (CHO-K1, read-out: Emax) was 90%; in test [3], “inactive”.

As to `COc1cc(F)ccc1-c1ccc2c(c1)C(=O)NC[C@H]1CN(C)C[C@H]21` [Example 326, (3aS,10bS)-8-(4-Fluoro-2-methoxyphenyl)-2-methyl-2,3,3a,4,5,10b-hexahydropyrrolo[3,4-d][2]benzazepin-6(1H)-one], the pEC50 in test [2] (setting [4]) was 8.05; in test [3] (setting [5]) it was under 5.00. Moreover, the Emax in test [2] (CHO-K1, read-out: Emax) is 85%; in test [3], “inactive”.

In the case of `CN1C[C@@H]2CNC(=O)c3cc(-c4ccccn4)ccc3[C@H]2C1` [Example 388, (3aS,10bS)-2-Methyl-8-(pyridin-2-yl)-2,3,3a,4,5,10b-hexahydropyrrolo[3,4-d][2]benzazepin-6(1H)-one], the negative-log EC50 (pEC50) was 6.52 in test [2] (setting [4]) and under 5.00 in test [3] (setting [5]). In addition, the Emax in test [2] (CHO-K1) was 90%; in test [3] it was “inactive”.

As for “Trans-8-(2-methoxyphenethoxy)-2-methyl-1,2,3,3a,4,5-hexahydrobenzo[e]pyrrolo[3,4-c]azepin-6(10bH)-one [Example 183]”, the figures for the pEC50 in test [2] (setting [4]) and in test [3] (setting [5]) were 7.40 and under 5.00, respectively. Further, the maximal response (Emax) is 65% in test [2] and “inactive” in test [3].

With “Trans-8-(3-chloro-1H-pyrrol-2-yl)-2-methyl-2,3,3a,4,5,10b-hexahydropyrrolo[3,4-d][2]benzazepin-6(1H)-one and Trans-8-(5-chloro-1H-pyrrol-2-yl)-2-methyl-2,3,3a,4,5,10b-hexahydropyrrolo[3,4-d][2]benzazepin-6(1H)-one [Example 386]”, the pEC50 in test [2] (setting [4]) was 7.70; in test [3] (setting [5]), under 5.00. Further, the Emax in test [2] is 65%; in test [3], “inactive”.
